According to US4684664A, “Derivatives of β-(4-isocyano-1,2,3,4-diepoxycyclopentyl) acrylic acid” (Kureha Kagaku Kogyo Kabushiki Kaisha, priority 1984, dated 1987):
Values after ≈ are worked out from the molar mass of the structure shown. Like-named read-outs stand apart in the source and are kept apart here.

How the values were obtained:
Format in all cases: cell-based
[1] = test system: Candida albicans IAM 4905; test: Antifungal activity, agar-dilution MIC, organism No. 29; conditions: Candida albicans
Summary of the method: (§1)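 Bouillon-agar culture medium served for the agar-dilution test; inhibitory endpoint expressed per ml of medium in μg.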

[2] = test system: Proteus vulgaris HX-19; test: Antibacterial activity, agar-dilution MIC, organism No. 21; conditions: Proteus vulgaris
Summary of the method: as §1

[3] = test system: Proteus morganii IFO 3848; test: Antibacterial activity, agar-dilution MIC, organism No. 18; conditions: Morganella morganii
Summary of the method: as §1

[4] = test system: Staphylococcus aureus MS 353; test: Antibacterial activity, agar-dilution MIC, organism No. 3; conditions: Staphylococcus aureus
Summary of the method: as §1

[5] = test system: Proteus mirabilis IFO 3849; test: Antibacterial activity, agar-dilution MIC, organism No. 19; conditions: Proteus mirabilis
Summary of the method: as §1

[6] = test system: Serratia marcescens IAM 1184; test: Antibacterial activity, agar-dilution MIC, organism No. 13; conditions: Serratia marcescens
Text: Agar-dilution method was used for determination of the antibacterial activity and antifungal activity while using bouillon-agar culture medium, and the minimum inhibitory concentration of the specimen was expressed by μg/ml of the culture medium.

[7] = test system: Pseudomonas aeruginosa IFO 3445; test: Antibacterial activity, agar-dilution MIC, organism No. 15; conditions: Pseudomonas aeruginosa
Summary of the method: as §1

[8] = test system: Salmonella typhi 901; test: Antibacterial activity, agar-dilution MIC, organism No. 9; conditions: Salmonella enterica, TYPHI, read-out: Minimum Inhibitory Concentration
Summary of the method: as §1

[9] = test system: Salmonella enteritidis G 14; test: Antibacterial activity, agar-dilution MIC, organism No. 12; conditions: Salmonella enterica, ENTERITIDIS, read-out: Minimum Inhibitory Concentration
Summary of the method: as §1

[10] = test system: Staphylococcus aureus FDA 209PJc-1; test: Antibacterial activity, agar-dilution MIC, organism No. 1; conditions: Staphylococcus aureus
Summary of the method: as §1

[11] = test system: Streptococcus pyogenes Cook; test: Antibacterial activity, agar-dilution MIC, organism No. 4; conditions: Streptococcus pyogenes, read-out: Minimum Inhibitory Concentration
Summary of the method: as §1

[12] = test system: Aspergillus niger IFO 6342; test: Antifungal activity, agar-dilution MIC, organism No. 30; conditions: Aspergillus niger
Summary of the method: as §1

[13] = test system: Escherichia coli NIHJ-JC-2; test: Antibacterial activity, agar-dilution MIC, organism No. 5; conditions: Escherichia coli
Summary of the method: as §1

[14] = test system: Enterobacter cloacae 963; test: Antibacterial activity, agar-dilution MIC, organism No. 24
Summary of the method: as §1

[15] = test system: Bacillus subtilis ATCC 6633; test: Antibacterial activity, agar-dilution MIC, organism No. 14; conditions: Bacillus subtilis
Summary of the method: as §1

[16] = test system: Enterobacter aerogenes ATCC 13048; test: Antibacterial activity, agar-dilution MIC, organism No. 23; conditions: Klebsiella aerogenes
Summary of the method: as §1

[17] = test system: Proteus vulgaris OX-19; test: Antibacterial activity, agar-dilution MIC, organism No. 20; conditions: Proteus vulgaris
Summary of the method: as §1

[18] = test system: Staphylococcus aureus Terajima; test: Antibacterial activity, agar-dilution MIC, organism No. 2; conditions: Staphylococcus aureus, read-out: Minimum Inhibitory Concentration
Summary of the method: as §1

[19] = test system: Pseudomonas aeruginosa NCTC 10490; test: Antibacterial activity, agar-dilution MIC, organism No. 16; conditions: Pseudomonas aeruginosa
Summary of the method: as §1

[20] = test system: Salmonella paratyphi-A 1015; test: Antibacterial activity, agar-dilution MIC, organism No. 10; conditions: Salmonella enterica, PARATYPHI, read-out: Minimum Inhibitory Concentration
Summary of the method: as §1

[21] = test system: Micrococcus luteus ATCC 9341; test: Antibacterial activity, agar-dilution MIC, organism No. 25; conditions: Micrococcus luteus
Summary of the method: as §1

[22] = test system: Pseudomonas aeruginosa PAO 1; test: Antibacterial activity, agar-dilution MIC, organism No. 17; conditions: Pseudomonas aeruginosa
Summary of the method: as §1

[23] = test system: Salmonella typhimurium IID 971; test: Antibacterial activity, agar-dilution MIC, organism No. 8; conditions: Salmonella enterica, read-out: Minimum Inhibitory Concentration
Summary of the method: as §1

[24] = test system: Escherichia coli K12 C600 IAM 1264; test: Antibacterial activity, agar-dilution MIC, organism No. 6; conditions: Escherichia coli
Summary of the method: as §1

[25] = test system: Klebsiella pneumoniae PCI-602; test: Antibacterial activity, agar-dilution MIC, organism No. 7; conditions: Klebsiella pneumoniae
Summary of the method: as §1

[26] = test system: Proteus rettgeri IFO 3850; test: Antibacterial activity, agar-dilution MIC, organism No. 22; conditions: Providencia rettgeri
Summary of the method: as §1

[27] = test system: Salmonella shottmuelleri 8006; test: Antibacterial activity, agar-dilution MIC, organism No. 11
Summary of the method: as §1

[C-]#[N+]C12CC3(/C=C/C(=O)Nc4ccncc4)OC3C1O2 (stereo not drawn) [compound 72]
MIC ([1]; IAM4905, read-out: Minimum Inhibitory Concentration): 6.25 µg/mL (≈ 23.2 µM)
MIC ([2]; HX19, read-out: Minimum Inhibitory Concentration): 6.25 µg/mL (≈ 23.2 µM)
MIC ([3]; IFO3848, read-out: Minimum Inhibitory Concentration): 6.25 µg/mL (≈ 23.2 µM)
MIC ([4]; MS353, read-out: Minimum Inhibitory Concentration): 3.13 µg/mL (≈ 11.6 µM)
MIC ([5]; IFO3849, read-out: Minimum Inhibitory Concentration): > 200 µg/mL
MIC ([6]; IAM1184, read-out: Minimum Inhibitory Concentration): 100 µg/mL (≈ 371 µM)
MIC ([7]; IFO3445, read-out: Minimum Inhibitory Concentration): > 200 µg/mL
MIC [8]: 12.5 µg/mL (≈ 46.4 µM)
MIC [9]: 12.5 µg/mL (≈ 46.4 µM)
MIC ([10]; FDA209PJC1, read-out: Minimum Inhibitory Concentration): 1.56 µg/mL (≈ 5.79 µM)
MIC [11]: 12.5 µg/mL (≈ 46.4 µM)
MIC ([12]; IFO6342, read-out: Minimum Inhibitory Concentration): 6.25 µg/mL (≈ 23.2 µM)
MIC ([13]; NIHJJC2, read-out: Minimum Inhibitory Concentration): 50 µg/mL (≈ 186 µM)
MIC ([14]; Enterobacter cloacae, 963, read-out: Minimum Inhibitory Concentration): 200 µg/mL (≈ 743 µM)
MIC ([15]; ATCC6633, read-out: Minimum Inhibitory Concentration): 12.5 µg/mL (≈ 46.4 µM)
MIC ([16]; ATCC13048, read-out: Minimum Inhibitory Concentration): > 200 µg/mL
MIC ([17]; OX19, read-out: Minimum Inhibitory Concentration): 6.25 µg/mL (≈ 23.2 µM)
MIC [18]: 6.25 µg/mL (≈ 23.2 µM)
MIC ([19]; NCTC10490, read-out: Minimum Inhibitory Concentration): > 200 µg/mL
MIC [20]: 3.13 µg/mL (≈ 11.6 µM)
MIC ([21]; ATCC9341, read-out: Minimum Inhibitory Concentration): 50 µg/mL (≈ 186 µM)
MIC ([22]; PAO1, read-out: Minimum Inhibitory Concentration): > 200 µg/mL
MIC [23]: 25 µg/mL (≈ 92.8 µM)
MIC ([24]; IAM1264, read-out: Minimum Inhibitory Concentration): 50 µg/mL (≈ 186 µM)
MIC ([25]; PCI602, read-out: Minimum Inhibitory Concentration): 3.13 µg/mL (≈ 11.6 µM)
MIC ([26]; IFO3850, read-out: Minimum Inhibitory Concentration): 200 µg/mL (≈ 743 µM)
MIC ([27]; Salmonella, 8006, read-out: Minimum Inhibitory Concentration): 6.25 µg/mL (≈ 23.2 µM)

[C-]#[N+]C12CC3(/C=C/C(=O)Nc4nnc(C)s4)OC3C1O2 (stereo not drawn) [compound 71]
MIC ([1]; IAM4905, Organism No. 29, bouillon-agar, read-out: Minimum Inhibitory Concentration): 12.5 µg/mL (≈ 43.1 µM)
MIC ([2]; HX19, Organism No. 21, bouillon-agar, read-out: Minimum Inhibitory Concentration): 6.25 µg/mL (≈ 21.5 µM)
MIC ([3]; IFO3848, Organism No. 18, bouillon-agar, read-out: Minimum Inhibitory Concentration): 12.5 µg/mL (≈ 43.1 µM)
MIC ([4]; MS353, Organism No. 3, bouillon-agar, read-out: Minimum Inhibitory Concentration): 6.25 µg/mL (≈ 21.5 µM)
MIC ([5]; IFO3849, Organism No. 19, bouillon-agar, read-out: Minimum Inhibitory Concentration): > 200 µg/mL
MIC ([6]; IAM1184, Organism No. 13, bouillon-agar, read-out: Minimum Inhibitory Concentration): > 200 µg/mL
MIC ([7]; IFO3445, Organism No. 15, bouillon-agar, read-out: Minimum Inhibitory Concentration): > 200 µg/mL
MIC [8]: 25 µg/mL (≈ 86.1 µM)
MIC ([9]; Organism No. 12, bouillon-agar): 200 µg/mL (≈ 689 µM)
MIC ([10]; FDA209PJC1, Organism No. 1, bouillon-agar, read-out: Minimum Inhibitory Concentration): 1.56 µg/mL (≈ 5.37 µM)
MIC ([11]; Organism No. 4, bouillon-agar): 12.5 µg/mL (≈ 43.1 µM)
MIC ([12]; IFO6342, Organism No. 30, bouillon-agar, read-out: Minimum Inhibitory Concentration): 200 µg/mL (≈ 689 µM)
MIC ([13]; NIHJJC2, Organism No. 5, bouillon-agar, read-out: Minimum Inhibitory Concentration): > 200 µg/mL
MIC ([14]; Enterobacter cloacae, 963, Organism No. 24, bouillon-agar, read-out: Minimum Inhibitory Concentration): > 200 µg/mL
MIC ([15]; ATCC6633, Organism No. 14, bouillon-agar, read-out: Minimum Inhibitory Concentration): > 200 µg/mL
MIC ([16]; ATCC13048, Organism No. 23, bouillon-agar, read-out: Minimum Inhibitory Concentration): > 200 µg/mL
MIC ([17]; OX19, Organism No. 20, bouillon-agar, read-out: Minimum Inhibitory Concentration): 6.25 µg/mL (≈ 21.5 µM)
MIC ([18]; Organism No. 2, bouillon-agar): 12.5 µg/mL (≈ 43.1 µM)
MIC ([19]; NCTC10490, Organism No. 16, bouillon-agar, read-out: Minimum Inhibitory Concentration): > 200 µg/mL
MIC [20]: 12.5 µg/mL (≈ 43.1 µM)
MIC ([21]; ATCC9341, Organism No. 25, bouillon-agar, read-out: Minimum Inhibitory Concentration): > 200 µg/mL
MIC ([22]; PAO1, Organism No. 17, bouillon-agar, read-out: Minimum Inhibitory Concentration): > 200 µg/mL
MIC ([23]; Organism No. 8, bouillon-agar): > 200 µg/mL
MIC ([24]; IAM1264, Organism No. 6, bouillon-agar, read-out: Minimum Inhibitory Concentration): > 200 µg/mL
MIC ([25]; PCI602, Organism No. 7, bouillon-agar, read-out: Minimum Inhibitory Concentration): > 200 µg/mL
MIC ([26]; IFO3850, Organism No. 22, bouillon-agar, read-out: Minimum Inhibitory Concentration): > 200 µg/mL
MIC ([27]; Salmonella, 8006, Organism No. 11, bouillon-agar, read-out: Minimum Inhibitory Concentration): 100 µg/mL (≈ 344 µM)
